Measurements published in the NIST ThermoML archive (doi:10.1016/j.jct.2014.09.004).
± gives the expanded uncertainty stated by the source.

Details: Liquid; pulse heating

| SMILES | Critical pressure [kPa] | Critical temperature [K] |
| --- | --- | --- |
| c1cc2c3c(cccc3c1)CC2 [acenaphthene] | 3700 ± 110 | 820 ± 8 |
| c1ccc2c(c1)Cc1ccccc1-2 [fluorene] | 3180 ± 100 | 836 ± 8 |
| c1cc2ccc3cccc4ccc(c1)c2c34 [pyrene] | 3030 ± 90 | 974 ± 10 |

Results, then the molecule that gave them:

| Critical pressure [kPa] | Critical temperature [K] | SMILES |
| --- | --- | --- |
| 3170 ± 100 | 894 ± 9 | c1ccc2cc3ccccc3cc2c1 [anthracene] |
| 3250 ± 100 | 893 ± 9 | c1ccc2c(c1)ccc1ccccc12 [phenanthrene] |
